How the values were obtained:
GRβ [1] = assay: Immunofluorescence of GRβ in T24 cells; type: cell-based, human
GRβ [2] = assay: GRβ expression in A549 lung cancer cells; type: cell-based, human
Text: (§1) FIG. 10: Sweet-P blocks GRβ expression in lung and prostate cancer cells.

GRα [3] = molecular target: T1, GRα (Homo sapiens, UniProt P04150); assay: GRα controlled gene expression by Real-Time PCR in T24 cells; type: cell-based; details: Sweet-P 48 hours then 2 hours of dexamethasone
T1 construct: endogenous in cells; host or cells: T24 human uroepithelial carcinoma cells (ATCC)
T1 sequence (P04150 1-777): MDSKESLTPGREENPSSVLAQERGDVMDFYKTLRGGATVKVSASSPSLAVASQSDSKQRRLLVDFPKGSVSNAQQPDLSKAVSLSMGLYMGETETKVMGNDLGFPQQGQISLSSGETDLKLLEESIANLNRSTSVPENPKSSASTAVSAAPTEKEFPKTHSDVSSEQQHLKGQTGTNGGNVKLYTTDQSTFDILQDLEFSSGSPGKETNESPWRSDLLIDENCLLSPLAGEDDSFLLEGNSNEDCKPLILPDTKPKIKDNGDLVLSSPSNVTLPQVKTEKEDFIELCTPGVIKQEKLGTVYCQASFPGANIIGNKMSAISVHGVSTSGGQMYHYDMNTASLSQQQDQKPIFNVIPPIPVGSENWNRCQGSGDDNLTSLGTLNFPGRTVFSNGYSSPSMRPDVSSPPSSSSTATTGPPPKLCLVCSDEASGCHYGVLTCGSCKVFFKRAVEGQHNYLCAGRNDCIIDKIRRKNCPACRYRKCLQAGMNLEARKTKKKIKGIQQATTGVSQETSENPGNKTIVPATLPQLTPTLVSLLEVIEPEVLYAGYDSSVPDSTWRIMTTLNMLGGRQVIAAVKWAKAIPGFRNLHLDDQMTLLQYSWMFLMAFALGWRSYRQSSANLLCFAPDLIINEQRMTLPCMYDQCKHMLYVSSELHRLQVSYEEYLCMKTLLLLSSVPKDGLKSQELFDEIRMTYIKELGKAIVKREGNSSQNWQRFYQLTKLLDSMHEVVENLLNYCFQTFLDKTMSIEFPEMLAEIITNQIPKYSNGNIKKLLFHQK
Experimental: GRα controlled gene response was measured by Real-Time PCR for FKBP51, GILZ, p21, VEGFA, GRα, and GRβ. Cells were seeded in media containing 10% dialyzed FBS for 24 hours before treatment.
Total RNA was extracted from cell cultures using the 5-Prime PerfectPure® RNA Cell Kit (Fisher Scientific Company, LLC). Total RNA was read on a NanoDrop 2000® spectrophotometer (ThermoFisher Scientific, Wilmington, Del.) and cDNA was synthesized using High Capacity cDNA Reverse Transcription Kit (Applied Biosystems). PCR amplification of the cDNA was performed by quantitative real-time PCR using TrueAmp SYBR Green qPCR SuperMix® (Smart Bioscience). The thermocycling protocol consisted of 10 min at 95° C., 40 cycles of 15 sec at 95° C., 30 sec at 60° C., and 20 sec at 72° C., and finished with a melting curve ranging from 60-95° C. to allow distinction of specific products. Normalization was performed in separate reactions with primers to GAPDH.

PTEN = assay: Immunostaining of PTEN in T24 cells; type: cell-based, human; details: 10 nM Sweet-P, 48 hours
mTOR = assay: Immunostaining of mTOR in T24 cells; type: cell-based, human; details: 10 nM Sweet-P, 48 hours
human GRβ mRNA = assay: GRβ mRNA expression by Real-Time PCR in T24 cells; type: cell-based
Experimental: The human uroepithelial carcinoma cell lines UMUC-3 and T24 (ATCC) were routinely cultured and maintained in Minimum Essential Medium (MEM) containing 10% fetal bovine serum (FBS) with 1% antibiotic-antimycotic. Cells were maintained at 37° C. and 5% CO2. Media was changed to MEM containing 10% Dialyzed-FBS with 1% antibiotic antimycotic 24 hours before hormone treatments.
A peptide nucleic acid (PNA) (Sweet-P) conjugated to a cell penetrating peptide (CPP) targeting the miR144 binding site in the 3′UTR of the human GRβ was designed using the PANAGENE® website (www.panagene.com). The Sweet-P targeting sequence was: (TGCCATACACAGTAT) [SEQ ID NO:1]. The Sweet-P sequence targeted the miR144 binding site in the 3′ UTR of human GRβ. (FIG. 7.) All PNAs were attached to an O-linker and a modified tat protein (VQRKRQKLMP) [SEQ ID NO:2] for delivery into the cell. Treatment with Sweet-P was performed for 48 hrs before the cells were analyzed.

GRβ [4] = assay: GRβ expression in E006AA-Par prostate cancer cells; type: cell-based, human
Text: as §1

E006AA cell lines = assay: Migration of E006AA-Par and E006AA-hT prostate cancer cells; type: cell-based, human
Text: FIG. 15: Lentiviral shRNA suppression of human GRβ in E006AA-Par and E006AA-hT prostate cancer cells suppresses migration. *, P<0.05 and **, P<0.01 (scramble vs GRβ KD). N=12.

GRα [5] = assay: Immunofluorescence of GRα in T24 cells; type: cell-based, human
Experimental: (§2) FIGS. 3A-3D: Dexamethasone and insulin treatment in T24 cells (FIGS. 3A-3B) and UMUC-3 cells (FIGS. 3C-3D). GRβ and GRα expression and location were measured using immunofluorescence with control (vehicle treatment), dexamethasone, or insulin treatments. Cells were seeded onto coverslips in media containing 10% dialyzed FBS for 24 hours before treating. Cells were treated with 100 nM insulin, 100 nM dexamethasone, or vehicle for 30 minutes. Secondary antibodies (labeling of human GRα or GRβ) are shown in green, DAPI (nuclei labeling) are shown in blue, a merge of the green and blue images are shown in panel 3 to represent localization, and a bright field image is shown in gray (scale bar=25 μm).
Cells were seeded onto a glass coverslip placed in a 6-well plate and grown were grown to desired confluence. Cells were then fixed with 3% paraformaldehyde, permeated with PBS containing 0.25% Triton X (PBST), and blocked with PBST containing 1% BSA. Slides were then stained with either anti-hGRα Rabbit IgG or anti-hGRβ Rabbit IgG antibodies obtained from Antibody Research. Secondary staining was performed using anti-Rb IgG 488 antibody from Life Technologies. Coverslips were planted onto slides with Fluoromount-G®, and DAPI was added to stain nuclei. Slides were magnified using a Leica Microscope with a 63X oil Immersion lens. […]

3′UTR of human GRβ = assay: 3′UTR GRβ-Luc luciferase reporter assay in T24 cells; type: cell-based; details: Sweet-P at 0.1 nM, 1.0 nM, and 10 nM, 48 hours, versus 0 nM
Experimental: For transient transfection, cells were plated on a 6-well or 12-well dish in MEM containing 10% FBS. Cells were washed with OPTI-MEM and transfected using GeneFect® (Alkali Scientific, Inc.), according to the manufacturer's […] protocol. OPTI-MEM was removed after 12 h and MEM containing 10% FBS was added.
The expression vector pMirTarget containing the 3′UTR of hGRβ (hGRβ 3′UTR-luc) was purchased from Origene. The binding sites were mutated using the QuikChange Lightning Multi Site-Directed Mutagenesis Kits® (Agilent Technologies). Successful mutations were confirmed through sequencing by Operon MWG. Cells were seeded onto a 12-well plate and grown overnight. Transient transfection was performed as described above. To determine the effect of Sweet-P on the T24 bladder cancer cells, the cells were treated 24 h after transfection for 48 hours post transfection, 3′UTR GRβ-Luc WT or mutant expression was measured by luciferase, and pRL-CMV Renilla reporter for normalization to transfection efficiency, using the Promega dual luciferase assay system (Promega, Madison, Wis.).
A peptide nucleic acid (PNA) (Sweet-P) conjugated to a cell penetrating peptide (CPP) targeting the miR144 binding site in the 3′UTR of the human GRβ was designed using the PANAGENE® website (www.panagene.com). […] Treatment with Sweet-P was performed for 48 hrs before the cells were analyzed.

T24 bladder cancer cells = assay: Scratch (wounding) migration assay in T24 cells; type: cell-based, human
Experimental: Cells were seeded on a 6-well plate and grown for 24 hours until a monolayer of 90% confluent cells was obtained. A scratch wound in the cell monolayer was introduced using a sterile pipette tip. Images were taken at the time of wounding, and every 5 hours thereafter. Migration was measured as the fold change of the width of the wound remaining. To determine miRNA and mRNA expression during the scratch (wounding assay), total RNA was collected using the miRNeasy® Mini Kit (Qiagen) (described above) at 0 and 3 hours after the migration.

GRβ [6] = assay: Immunofluorescence of GRβ in UMUC-3 cells; type: cell-based, human; details: 100 nM, 30 minutes
Experimental: as §2, with “Cells were seeded onto coverslips in media containing 10% dialyzed FBS for 24 hours before treating.” left out
(§3) Cells were seeded onto a glass coverslip placed in a 6-well plate and grown were grown to desired confluence. […] Slides were then stained with either anti-hGRα Rabbit IgG or anti-hGRβ Rabbit IgG antibodies obtained from Antibody Research. […] Coverslips were planted onto slides with Fluoromount-G®, and DAPI was added to stain nuclei. Slides were magnified using a Leica Microscope with a 63X oil Immersion lens. Images were acquired in the XYZ plane in 1 μm steps with a 63X oil objective (NA 1.40). Images were acquired with the LAS AF® software in sequential scan mode. AlexaFluor488® was excited at 488 nm with collection at 500-558 nm and DAPI was excited with the multi-photon (MP) laser tuned to 790 nm with collection at 420-500 nm. Images are 2D projections of the of image stack as labeled. […]

GRα [7] = assay: Immunofluorescence of GRα in UMUC-3 cells; type: cell-based, human; details: 100 nM, 30 minutes, versus vehicle
Experimental: as §2, with “Cells were seeded onto coverslips in media containing 10% dialyzed FBS for 24 hours before treating.” left out
as §3

UMUC-3 cells = assay: miRNA expression by Real-Time PCR in UMUC-3 cells; type: cell-based, human; details: 100 nM Insulin, 2 hours
Experimental: FIGS. 8A-8B: The effect of dexamethasone treatment on cell migration and miRNA expression in UMUC-3 and T24 bladder cancer cells. Migration was measured in the UMUC-3 and T24 cells that were treated with either vehicle or 100 nM dexamethasone for 30 minutes prior to wounding, and is presented as the fold-change in the wound width remaining (FIG. 8A). Images of the migration assay at […] post wounding are shown, with wound edges marked at T0 (black solid line) and T15 (white dashed line). ANOVA p<0.001; Bonferoni comparisons ***, p<0.0001 (versus Vehicle) (±S.E.; n=6). Total RNA was extracted from the UMUC3 and T24 cells after treating with either vehicle, 100 nM dexamethasone, or 100 nM Insulin in dialyzed media for 2 hours before harvesting, and miRNA expression was measured by Real-Time PCR (FIG. 8B). *, p<0.05; (Dex versus Veh); $, p<0.05; (Ins versus Veh); ##, p<0.01; ##, p<0.001; (T24 versus UMUC3) (±S.E.; n=6).
Total RNA was extracted from cell cultures using the miRNeasy® Mini Kit (Qiagen). Total RNA was read on a NanoDrop 2000® spectrophotometer (Thermo Fisher Scientific, Wilmington, Del.) and cDNA was synthesized using the miScript RT Kit (Qiagen). […] The miScript Primer Assay® primers were purchased from Qiagen. Normalization was performed in separate reactions with primers to Hs_RNU6-2_11, At_U19_1, and Hs_SNORD61_11.

T24 cells = assay: miRNA expression by Real-Time PCR in T24 cells; type: cell-based, human; details: 100 nM Insulin, 2 hours
Experimental: FIGS. 8A-8B: […] ANOVA p<0.001; Bonferoni comparisons ***, […]=6). […] Total RNA was extracted from cell cultures using the miRNeasy® Mini Kit (Qiagen). […] The miScript Primer Assay® primers were purchased from Qiagen. Normalization was performed in separate reactions with primers to Hs_RNU6-2_11, At_U19_1, and Hs_SNORD61_11. The cloning vector pCMV-MIR containing the miR144 sequence was purchased from Origene. Cells were seeded on a 6-well plate, and transient transfection of the plasmid was completed as described above. After 48 hours-post transfection, RNA was harvested.

[8] = 100 nM, 30 minutes, versus vehicle

Substance: Sweet-P: PNA TGCCATACACAGTAT [SEQ ID NO:1] attached to an O-linker and modified tat protein VQRKRQKLMP, targeting the miR144 binding site in 3′UTR of human GRβ (all peptide nucleic acid (PNA); O-linker and modified tat peptide attached, position not given here)
- GRβ protein expression (GRβ [1]; 10 nM Sweet-P, 48 hours): reduced
- GRβ expression (GRβ [2]): blocks
- FKBP51 expression (GRα activity) (GRα [3]): enhancing expression
- tumor necrosis factor α (TNFα) expression (GRα activity) (GRα [3]): decreasing
- PTEN protein expression (PTEN): significantly (p<0.0001) increased
- mTOR protein expression (mTOR): unaffected
- GRβ mRNA expression (human GRβ mRNA; Sweet-P at 1.0 nM, 10 nM, 50 nM, and 100 nM, 48 hours, versus 0 nM): significantly (p<0.05) decreased
- GRβ expression (GRβ [4]): blocks
- migration (E006AA cell lines; E006AA-Par and E006AA-hT cells, Sweet-P): significantly decreased
- GRα protein expression (GRα [5]; 10 nM Sweet-P, 48 hours): no effect
- luciferase expression of the pMirTarget 3′ UTR hGRβ construct (3′UTR of human GRβ): significantly (p<0.001) reduced
- migration (wound width remaining) (T24 bladder cancer cells; T24 cells, 10 nM Sweet-P for 48 hours prior to wounding): significantly (ANOVA: p<0.001) inhibited

Substance: insulin: insulin, hormone treatment at 100 nM
- GRβ localization (GRβ [1]; 100 nM, 30 minutes): no change
- GRβ expression (immunofluorescence) (GRβ [1]; [8]): significantly increased
- GRβ localization (GRβ [6]): higher in the nucleus
- GRβ expression (immunofluorescence) (GRβ [6]; versus vehicle): significantly increased
- GRα expression (immunofluorescence) (GRα [7]): no effect
- miR-181a expression (UMUC-3 cells): suppress
- GRα expression (immunofluorescence) (GRα [5]; [8]): significantly decreased (p<0.001)
- expression of miR-33a, miR-144, miR-181a, miR-181b, miR-181c, or miR-181d (T24 cells): did not significantly change

Substance: GRβ shRNA: pGFP-C-shLenti lentiviral GRβ shRNA (CCAGAAAGCACATCTCACACATTAATCTG) [reference compound]
- knockdown of GRβ expression (reduction) (human GRβ mRNA; stable shRNA lentivirus, versus T24 Scramble): 64%
- migration (E006AA cell lines; E006AA prostate cancer cells, lentiviral shRNA versus scramble): significant reduction
- migration (T24 bladder cancer cells; T24 GRβ shRNA cells versus T24 Scramble): significant (ANOVA: p<0.001) decrease

From US10457947B2, “Targeting of human glucocorticoid receptor beta in cancer” (The University of Toledo, priority 2016, dated 2019)
